Measured values reported in patent US20080132505A1 (Glaxo Group Limited, priority 2004, published 2008).
pEC50: −log10 of the molar value. Read-outs that look alike come from different tables or passages of the source.

Biological target: human cannabinoid CB2 receptor (Homo sapiens, UniProt P34972)
Assay: Cannabinoid CB2 receptor agonist activity (yeast reporter assay, FDGlu fluorescence)
Type: cell-based
Settings: for Emax: read-out: efficacy value (Emax relative to HU210) at the cloned human cannabinoid CB2 receptor
How it was run: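 S. cerevisiae MMY23 expressing human CB2 with a Gpa1/Gαi3 chimeric G-protein, grown 24 h at 30 °C with agonist (1% DMSO) in selective media containing 10 mM 3-aminotriazole and FDGlu, pH 7.0. Fluorescein fluorescence (485/535 nm) fitted by four-parameter curve; Emax and EMR relative to HU210.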

[1] = EC50 value at the cloned human cannabinoid CB2 receptor
[2] = read-out: EC50 value at the cloned human cannabinoid CB2 receptor

Chain of human cannabinoid CB2 receptor (P34972 whole entry): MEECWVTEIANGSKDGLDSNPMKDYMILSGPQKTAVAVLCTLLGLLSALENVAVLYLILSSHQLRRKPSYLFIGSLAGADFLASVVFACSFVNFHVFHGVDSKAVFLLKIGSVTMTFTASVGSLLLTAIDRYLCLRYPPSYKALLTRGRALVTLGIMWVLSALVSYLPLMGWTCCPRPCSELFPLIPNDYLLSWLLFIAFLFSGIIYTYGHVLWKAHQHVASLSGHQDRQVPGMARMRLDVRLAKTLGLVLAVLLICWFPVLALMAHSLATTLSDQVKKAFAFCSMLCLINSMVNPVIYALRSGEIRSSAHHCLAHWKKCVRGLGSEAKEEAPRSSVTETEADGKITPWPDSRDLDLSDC

activity in the CB2 assay described herein	pEC50 [2]	Structure (SMILES)	pEC50 [1]	Emax [%]
		O=C(NCC1CCOCC1)c1cnc(Nc2ccc(OC(F)(F)F)c(Cl)c2)nc1C(F)(F)F [Example 216, 2-(4-Trifluoromethoxy-3-chloro-phenylamino)-4-trifluoromethyl-pyrimidine-5-carboxylic acid (tetrahydro-pyran-4-ylmethyl)-amide]	6.52 to 7.70	> 50
		O=C(NCc1ccc(F)cc1)c1cnc(Nc2cccc(F)c2)nc1C(F)(F)F [Example 288, 2-(3-Fluorophenylamino)-4-trifluoromethylpyrimidine-5-carboxylic acid 4-fluorobenzyl-amide]	6.52 to 7.70	
		O=C(c1cnc(Nc2ccc(Cl)c(Cl)c2)nc1C(F)(F)F)N1CCOCC1 [Example 68, 1-[2-(3,4-Dichlorophenylamino)-4-trifluoromethylpyrimidin-5-yl]-1-(morpholin-4-yl)-methanone]	6.52 to 7.70	> 50
inactive		CC(C)(C)c1ccc(Nc2ncc(C(=O)NCc3ccccc3)c(C(F)(F)F)n2)cc1 [2-(4-tert-butyl-phenylamino)-4-trifluoromethyl-pyrimidine-5-carboxylic acid benzylamide]		
		O=C(NCC1CCC1)c1cnc(Nc2ccc(Cl)cc2Cl)nc1C(F)(F)F [Example 201, 2-(2,4-Dichlorophenylamino)-4-trifluoromethyl-pyrimidine-5-carboxylic acid cyclobutylmethyl-amide]	6.52 to 7.70	> 50
		O=C(NCc1ccncc1)c1cnc(Nc2ccc(Cl)cc2Cl)nc1C(F)(F)F [Example 282, 2-(2,4-Dichlorophenylamino)-4-trifluoromethylpyrimidine-5-carboxylic acid (pyridin-4-ylmethyl)amide]	6.52 to 7.70	
		O=C(c1cnc(Nc2ccccc2)nc1C(F)(F)F)N1CCCCC1 [Example 24, 1-(2-Phenylamino-4-trifluoromethyl-pyrimidin-5-yl)-1-piperidin-1-yl-methanone]	6.00 to 6.52	> 50
		O=C(NCC1CCOCC1)c1cnc(Nc2ccc(Cl)c(Cl)c2)nc1C(F)(F)F [Example 250, 2-(3,4-Dichlorophenylamino)-4-trifluoromethylpyrimidine-5-carboxylic acid (tetrahydro-pyran-4-ylmethyl)-amide]	6.52 to 7.70	> 50
		O=C(NCC1CCCC1)c1cnc(Nc2cccc(F)c2)nc1C(F)(F)F [Example 38, 2-(3-Fluorophenylamino)-4-trifluoromethylpyrimidine-5-carboxylic acid cyclopentylmethyl-amide]	6.52 to 7.70	> 50
		O=C(NCC1CCC1)c1cnc(Nc2ccc(Br)cc2C(F)(F)F)nc1C(F)(F)F [Example 105, 2-(2-Trifluoromethyl-4-bromophenylamino)-4-trifluoromethyl-pyrimidine-5-carboxylic acid cyclobutylmethyl-amide]	6.00 to 6.52	> 50
		O=C(NCC1CCCCC1)c1cnc(Nc2ccc(Cl)c(Cl)c2)nc1C(F)(F)F [Example 17, 2-(3,4-Dichlorophenylamino)-4-trifluoromethylpyrimidine-5-carboxylic acid cyclohexylmethyl-amide]	6.52 to 7.70	> 50
		Cc1ccc(Cl)cc1Nc1ncc(C(=O)NCC2CCCC2)c(C(F)(F)F)n1 [Example 183, 2-(5-Chloro-2-methylphenylamino)-4-trifluoromethyl-pyrimidine-5-carboxylic acid (cyclopentylmethyl)-amide]	6.52 to 7.70	> 50
		COc1cccc(Nc2ncc(C(=O)NCC3CCCC3)c(C(F)(F)F)n2)c1 [Example 46, 2-(3-Methoxyphenylamino)-4-trifluoromethylpyrimidine-5-carboxylic acid cyclopentylmethyl-amide]	6.52 to 7.70	> 50
		O=C(NCC1CCC1)c1cnc(Nc2cccc(Cl)c2)nc1C(F)(F)F [Example 54, 2-(3-Chlorophenylamino)-4-trifluoromethylpyrimidine-5-carboxylic acid cyclobutylmethyl-amide]	6.52 to 7.70	> 50
inactive		CN(Cc1ccccc1)C(=O)c1cnc(Nc2ccc(C(C)(C)C)cc2)nc1C(F)(F)F [2-(4-tert-butyl-phenylamino)-4-trifluoromethyl-pyrimidine-5-carboxylic acid benzyl-methyl-amide]		
		O=C(NC1CCC1)c1cnc(Nc2cc(Cl)cc(Cl)c2)nc1C(F)(F)F [Example 52, 2-(3,5-Dichlorophenylamino)-4-trifluoromethylpyrimidine-5-carboxylic acid cyclobutylamide]	6.52 to 7.70	> 50
		O=C(NCc1ccnc(F)c1)c1cnc(Nc2cccc(Cl)c2)nc1C(F)(F)F [Example 294, 2-(3-Chloro-phenylamino)-4-trifluoromethyl-pyrimidine-5-carboxylic acid (2-fluoro-pyridin-4-ylmethyl)-amide]	6.52 to 7.70	
		CN(Cc1ccccc1)C(=O)c1cnc(Nc2cccc(Br)c2)nc1C(F)(F)F [Example 279, 2-(3-Bromophenylamino)-4-trifluoromethylpyrimidine-5-carboxylic acid N-benzyl-N-methylamide]	6.52 to 7.70	

activity in the CB2 assay described herein	pEC50 [2]	Structure (SMILES)	pEC50 [1]	Emax [%]
		O=C(NCC1CCOCC1)c1cnc(Nc2ccc(F)cc2F)nc1C(F)(F)F [Example 98, 2-(2,4-Difluorophenylamino)-4-trifluoromethyl-pyrimidine-5-carboxylic acid (tetrahydro-pyran-4-ylmethyl)-amide]	6.00 to 6.52	> 50
		N#Cc1ccc(Nc2ncc(C(=O)NCC3CCC3)c(C(F)(F)F)n2)cc1Cl [Example 197]		> 50
		O=C(NCC1CC1)c1cnc(Nc2cccc(Br)c2)nc1C(F)(F)F [Example 240, 2-(3-Bromophenylamino)-4-trifluoromethyl-pyrimidine-5-carboxylic acid cyclopropylmethyl-amide]	6.52 to 7.70	> 50
		O=C(NCC1CCCC1)c1cnc(Nc2cc(F)ccc2Cl)nc1C(F)(F)F [Example 249, 2-(2-Chloro-5-fluoro-phenylamino)-4-trifluoromethyl-pyrimidine-5-carboxylic acid cyclopentylmethyl-amide]	6.52 to 7.70	> 50
		O=C(NC1CCCC1)c1cnc(Nc2cccc(Cl)c2Cl)nc1C(F)(F)F [Example 77, 2,3-Dichlorophenylamino-4-trifluoromethyl-pyrimidine-5-carboxylic acid cyclopentylamide]	6.00 to 6.52	> 50
		O=C(NCC1CCSCC1)c1cnc(Nc2ccc(Cl)cc2Cl)nc1C(F)(F)F [Example 256, 2-(2,4-Dichlorophenylamino)-4-trifluoromethyl-pyrimidin-5-carboxylic acid (tetrahydrothiopyran-4-ylmethyl) amide]	6.52 to 7.70	> 50
	6.52 to 7.70	O=C(NCC1CCOCC1)c1cnc(Nc2cccc(Cl)c2F)nc1C(F)(F)F [Example 212, 2-(2-Fluoro-3-chloro-phenylamino)-4-trifluoromethyl-pyrimidine-5-carboxylic acid (tetrahydro-pyran-4-ylmethyl)-amide]		
inactive		O=C(NCc1ccccc1Br)c1cnc(Nc2cccc(Cl)c2)nc1C(F)(F)F [2-(3-Chloro-phenylamino)-4-trifluoromethyl-pyrimidine-5-carboxylic acid 2-bromo-benzylamide]		
	6.52 to 7.70	O=C(NCc1ccc(F)cc1)c1cnc(Nc2cccc(Br)c2)nc1C(F)(F)F [Example 289, 2-(3-Bromophenylamino)-4-trifluoromethylpyrimidine-5-carboxylic acid 4-fluorobenzyl-amide]		
		O=C(NCC1CCC1)c1cnc(Nc2ccc(C(F)(F)F)cc2Cl)nc1C(F)(F)F [Example 102, 2-(2-Chloro-4-trifluoromethylphenylamino)-4-trifluoromethyl-pyrimidine-5-carboxylic acid cyclobutylmethyl-amide]	6.00 to 6.52	> 50
		O=C(NCC1CCC1)c1cnc(Nc2cccc(C(F)(F)F)c2F)nc1C(F)(F)F [Example 252, 2-(2-Fluoro-3-trifluoromethyl-phenylamino)-4-trifluoromethyl-pyrimidine-5-carboxylic acid cyclobutylmethyl-amide]	6.52 to 7.70	> 50
		COc1cc(Nc2ncc(C(=O)NCC3CCOCC3)c(C(F)(F)F)n2)ccc1Cl [Example 186, 2-(4-Chloro-3-methoxyphenylamino)-4-trifluoromethyl-pyrimidine-5-carboxylic acid (tetrahydropyran-4-ylmethyl)-amide]	6.52 to 7.70	> 50
		CC(C)(C)CCNC(=O)c1cnc(Nc2cccc(Cl)c2)nc1C(F)(F)F [Example 27, 2-(3-Chloro-phenylamino)-4-trifluoromethyl-pyrimidine-5-carboxylic acid (3,3-dimethyl-butyl)-amide]	6.00 to 6.52	> 50
		O=C(NCc1ccc(F)cc1)c1cnc(Nc2ccc(Cl)cc2Cl)nc1C(F)(F)F [Example 365, 2-(2,4-Dichloro-phenylamino)-4-trifluoromethyl-pyrimidine-5-carboxylic acid 4-fluoro-benzylamide]	6.52 to 7.70	
		O=C(NCC1CCOCC1)c1cnc(Nc2c(Cl)cccc2Cl)nc1C(F)(F)F [Example 55, 2-(2,6-Dichlorophenylamino)-4-trifluoromethyl-pyrimidine-5-carboxylic acid (tetrahydro-pyran-4-ylmethyl)-amide]	6.52 to 7.70	> 50
		CC(C)c1cc(Nc2cc(Cl)ccc2C#N)ncc1C(=O)NCC1CCOCC1 [Example 679, 6-(5-Chloro-2-cyano-phenylamino)-4-isopropyl-N-(tetrahydro-pyran-4-ylmethyl)-nicotinamide]		< 30
		O=C(NCc1ccccc1)c1cnc(Nc2ccc(Cl)cc2Cl)nc1C(F)(F)F [Example 273, 2-(2,4-Dichlorophenylamino)-4-trifluoromethylpyrimidine-5-carboxylic acid benzyl-amide]	6.52 to 7.70	
